{"source": "patent US11761045B2", "about": "“Splice variants associated with neomorphic SF3B1 mutants” (Eisai R&D Management Co., Ltd., priority 2015, dated 2023)", "key": {"[1]": {"tested_on": "Nalm-6 SF3B1^K700E xenograft tumors", "experiment": "Splicing modulation and compound concentration in xenograft tumors after single IV dose", "assay_type": "in vivo, CB17-SCID mice", "conditions": "single IV dose 5 mg/kg", "procedure": "(§1) In addition, the ability of E7107 to modulate splicing was tested in mice bearing human tumor xenografts. Nalm-6 isogenic xenograft mice were generated by subcutaneously implanting 10×10^6 Nalm-6 isogenic cells into the flank of CB17-SCID mice, and tumors from these mice were collected at different timepoints after a single intravenous (IV) dose of E7107 (5 mg/kg) and analyzed to determine compound concentrations and splicing regulation. RNA was isolated from the tumors using RiboPure™ RNA purification kit (Ambion®) and used for NanoString® assay or qPCR. The RNA was retrotranscribed according to the instructions of the SuperScript® VILO™ cDNA synthesis kit (Invitrogen™) and 0.04 μl of cDNA was used for qPCR. qPCR for pre-mRNA EIF4A1 and mature mRNA […] and pharmacokinetic evaluation were performed as described in Eskens, F. A. et al. “Phase I pharmacokinetic and pharmacodynamic study of the first-in-class spliceosome inhibitor E7107 in patients with advanced solid tumors.” Clin Cancer Res 19, 6296-6304, doi:10.1158/1078-0432.CCR-13-0485 (2013). The primers and probes used for ZDHHC16 were the following: FW 5′-[…] (SEQ ID NO: 1194), RW 5′ […] (SEQ ID NO: 1195) and probe 5′ FAM […] (SEQ ID NO: 1196). The primers and probes used for COASY were the following: FW 5′-CGGTGGTGCAAGTGGAA (SEQ ID NO: 1197), RW 5′-[…] (SEQ ID NO: 1198) and probe 5′-FAM-[…] (SEQ ID NO: 1199)."}, "[2]": {"tested_on": "Nalm-6 SF3B1^K700K xenograft tumors", "experiment": "Splicing modulation and compound concentration in xenograft tumors after single IV dose", "assay_type": "in vivo, CB17-SCID mice", "conditions": "single IV dose 5 mg/kg", "procedure": "as §1"}, "SF3B1^WT": {"biological_target": "SF3B1^WT (Homo sapiens, UniProt O75533+Q7RTV0)", "experiment": "In vitro splicing assay (IVS), Ad2 pre-mRNA substrate, nuclear extracts", "assay_type": "biochemical", "set-up": "expressed in transfected cells; host or cells: nuclear extract of 293F cells transfected with pFLAG-CMV-2-SF3B1 (the same assay was also run with Nalm-6 nuclear extract)", "conditions": "nuclear extracts from Nalm-6 (SF3B1^WT) cells or 293F cells expressing Flag-tag SF3B1^WT", "procedure": "E7107 is a small-molecule compound that inhibits splicing by targeting the U2 snRNP-associated complex SF3B (Kotake, Y. et al. “Splicing factor SF3b as a target of the antitumor natural product pladienolide.” Nat Chem Biol 3, 570-575, doi:10.1038/nchembio.2007.16 [2007]).\nNuclear extracts were prepared from 293F cells transfected with pFLAG-CMV-2-SF3B1 plasmids, or from isogenic Nalm-6 cells (SBH Sciences). The plasmids were generated by cloning the mxSF3B1 gene into the HindIII and KpnI sites of pFLAG-CMV2 (Sigma), and the mutations mxSF3B1^K700E, mxsF3B1^R1074H and mxSF3B1^K700E-R1074H were introduced using […]. Cell pellets were resuspended in hypotonic buffer (10 mM HEPES pH 7.9, 1.5 mM MgCl2, 10 mM KCl, 0.2 mM PMSF, and 0.5 mM DTT; for Nalm-6 cells, 40 mM KCl was used). The suspension was brought up to a total of five packed cell volumes (PCV). After centrifugation, the supernatant was discarded, and the cells were brought up to 3 PCV with hypotonic buffer, and incubated on ice for 10 minutes. Cells were lysed using a dounce homogenizer and then centrifuged. […] Protein concentration was determined using NanoDrop 8000 UV-Vis spectrophotometer (Thermo Scientific). […]"}}}
{"smiles": "CC[C@H](O)[C@@H](C)[C@H]1O[C@@H]1C[C@@](C)(O)/C=C/C=C(\\C)[C@H]1OC(=O)C[C@H](O)CC[C@@](C)(O)[C@@H](OC(=O)N2CCN(C3CCCCCC3)CC2)/C=C/[C@@H]1C", "note": "[Compound E7107]", "values": [{"measurement": "abnormal splicing of COASY and ZDHHC16 in tumor, qPCR", "setting": "[1]", "value": "downregulated abnormal splicing"}, {"measurement": "canonical splicing in tumor (EIF4A1 pre-mRNA, SLC25A19 mature mRNA), qPCR", "setting": "[1]", "value": "modulated canonical splicing"}, {"measurement": "canonical and aberrant splice mRNA isoforms in tumor, NanoString", "setting": "[1]; timepoints after dose", "value": "downregulated by E7107 as early as one hour following administration"}, {"measurement": "canonical splicing in tumor (EIF4A1 pre-mRNA, SLC25A19 mature mRNA), qPCR", "setting": "[2]", "value": "modulated canonical splicing"}, {"measurement": "canonical and aberrant splice mRNA isoforms in tumor, NanoString", "setting": "[2]; timepoints after dose", "value": "downregulated by E7107 as early as one hour following administration"}, {"measurement": "inhibition of splicing of Ad2 pre-mRNA in nuclear extracts", "setting": "SF3B1^WT", "value": "able to inhibit splicing"}]}
